Experiments:
[1] = test system: GFP-Atg8; experiment: GFP-Atg8 processing assay (general autophagy); assay type: cell-based, Saccharomyces cerevisiae
Experimental: Saccharomyces cerevisiae strain containing the GFP-Atg8 (pRS 316 vector backbone) plasmid is grown in synthetic complete medium lacking uracil (SC-URA) under appropriate conditions (30° C. 250 rpm). From this, a secondary culture is inoculated at A600 nm=0.2 and grown as above until A600 nm reached ˜0.65. The cultures are transferred to SD-N (nitrogen starvation) medium at A600 nm=3, separately with and without the compounds, and samples are collected at different time intervals. Sample preparation is done by the TCA precipitation method and immunoblotting is performed using standard methods.
Yeast strains (A600=3) are resuspended in trichloroacetic acid (12.5%) and stored at −80° C. for at least half an hour. Samples are thawed on ice, centrifuged (16000×g, 10 min) and pellet is washed twice with ice-cold acetone (80%). Pellets are air dried, resuspended in lysis (1% SDS and 0.1 N NaOH) solution and Laemmii buffer and boiled for 10 min.

[2] = test system: EGFP-α-synuclein; experiment: EGFP-α-synuclein degradation assay in SH-SY5Y cells; assay type: cell-based, human
Experimental: For EGFP-α-synuclein degradation assay, equal numbers of sub-confluent SH-SY5Y cells are seeded in 6 well dishes and allowed to attach for 24 h. Cells are transfected with EGFP-α-synuclein plasmid using Lipofectamine 2000 (Life technologies) and allowed to express for 24 h.
After treatments, cells are collected in Laemmli buffer to perform LC3 processing assay, P70S6K, GSK3β and 4E-BP1 immunoblotting. To validate EGFP-α-synuclein degradation by 6-Bio, treated cells are scraped and collected in growth medium. After washing with phosphate buffer, pellets are lysed in Laemmli buffer and boiled for 10 min.
Samples are electrophoresed on SDS-PAGE (8-15%) and then transferred onto PVDF (Bio-Rad) membrane using Transblot turbo (Bio-Rad). Transferred blots are stained with Ponceau S, probed with appropriate primary antibodies overnight and subsequently horseradish peroxidase conjugated secondary antibody. Signals are developed using enhanced chemiluminescence substrate (Clarity, Bio-Rad), imaged using a gel documentation system (G-Box, Syngene) and bands are quantified using image software (NIH). (FIGS. 4F and 5A)

[3] = test system: Pot1-GFP (peroxisomes); experiment: Pot1-GFP pexophagy assay; assay type: cell-based, S. cerevisiae
Experimental: Pot1-GFP positive strains are allowed to grow till the A600 reached 0.8-1 in YPD. Peroxisome biogenesis is induced by growing these cells in oleate medium (0.1% oleate, 0.5% Tween-40, 0.25% yeast extract, 0.5% peptone, and 5 mM phosphate buffer) for 12hours. Cells are harvested, washed twice to remove traces of oleate and transferred to starvation medium without nitrogen, at inoculum density A600 3, to induce pexophagy. Cells are collected at various time intervals after pexophagy induction and processed by TCA method.
Pot1-GFP positive strains are allowed to grow in yeast extract peptone dextrose (YPD) (2% dextrose, 2% peptone and 1% yeast extract) till the Absorbance at 600 nm reaches 0.6-0.8. Peroxisome biogenesis is induced by growing these cells in YPG medium (1% yeast extract, 2% peptone, 3% glycerol) for 12 hours.
Cells are harvested, washed twice to remove traces of oleate and transferred to starvation medium with and without Acacetin, at. inoculum density Absorbance at 600 nm 3/ml, to induce pexophagy. Cells are collected at various time intervals after pexophagy induction and processed by TCA precipitation.

[4] = test system: Atg8; experiment: Atg8 immunolocalization in lace plant; assay type: cell-based, Aponogeton madagascariensis; conditions: two hours; same modulator concentrations as MDC; control 0.90±0.08
Experimental: Whole leaves are treated for two hours prior to fixation in 100% Methanol at 37° C. and then hydrophilized to 20% methanol by adding distilled water at 60° C. every two minutes for 32 minutes. Samples are then sectioned and placed on a multiwall slide and allowed to air dry for 10 minutes to facilitate membrane permeabilization. Blocking is done for 30 minutes at 37° C. with 4% low fat milk powder in 1× microtubule stabilization buffer MTSB (Modified 2× MTSB stock solution: 15 g PIPES, 1.9 g EDTA, 1.22 g MgSO4*7H2O and 2.5 g KOH—pH 7.0). Primary antibody incubation for anti-rabbit ATG8 (Agrisera, AS14 2769) is done at a 1:1000 dilution in 1× MTSB for 30 minutes at 37° C. Samples are then washed for 5 minutes, 3 times with 1× MTSB. Secondary antibody incubation with Goat anti-rabbit Dylight 488 (Agrisera AS09 633) at a 1:2000 dilution in 1× MTSB is done for 30 minutes at 37° C. and then samples are rinsed as above. Tissues are mounted in Mowiol 4-88 solution (Sigma, 81381) and scanned via confocal microscopy as mentioned above. The mean number of puncta per cell is determined using maximum intensity projections (MIPs) for each replicate. The total number of cells within a field of view are counted manually and the number of puncta are counted automatically using ImageJ.

[5] = test system: LC3-II; experiment: LC3 processing assay in SH-SY5Y cells; assay type: cell-based, human; conditions: 5 μM, 2 h; untreated vs treated
Experimental: The autophagy assays are performed by seeding equal numbers of sub-confluent 1-HeLa or SH-SY5Y cells in 6-well dishes and allowed to attach for 24 h, then treated with XCT 790 (5 μM) and/or 3-MA (5 mM) and/or lithium chloride (10 mM) in fed condition for 2 h. After treatments, the cell lysates are analyzed by immunoblotting.
Mammalian cell lysates preparation: After treatments, cells are collected in Laemmli buffer to perform LC3 processing assay, P70S6K, AMPK, ULK1 and 4E-BP1 immunoblotting. Samples are electrophoresed onto SDS-PAGE (8-15%) and then transferred onto PVDF (Bio-Rad) membrane through Transblot turbo (Bio-Rad). Blots are stained with Ponceau S, then probed with appropriate primary antibodies at 4° C. for overnight and subsequently HRP-conjugated secondary antibody. Signals are attained using enhanced chemiluminescence substrate (Clarity, Bio-Rad) and imaged using a gel documentation system (G Box, Syngene) and then bands are quantitated using Image software (NIH).

[6] = test system: SH-SY5Y cells (autophagosomes and autolysosomes); experiment: Tandem RFP-EGFP-LC3 assay in SH-SY5Y cells; assay type: cell-based, human; conditions: 2 h
Experimental: Sub-confluent HeLa and/or SH-SY5Y cells are seeded into 60 mm cell culture dishes, then transfected with ptf LC3 construct and/or siRNA and allowed to express for 48 h. Cells are trypsinized, seeded again on poly-D-lysine coated cover slips in a 12 or 24 well plates and allowed to attach. After appropriate treatments, the coverslips containing cells are processed for imaging. For immunofluorescent antibody staining, the cover slips are incubated in primary antibody at 4° C. for overnight followed by secondary antibody incubation at room temperature.
For imaging the mammalian cells, after appropriate treatments, coverslips containing cells are fixed using 4% paraformaldehyde (PFA) (Sigma) and then permeabilized using Triton X-100 (0.2%, HiMedia). On slide, coverslips are mounted using antifade, Vectashield mounting medium (Vector laboratories). For antibody staining, coverslips are blocked using 5% BSA for 1 h at room temperature, then incubated with primary antibody at 4° C., overnight and then subsequently probed with corresponding fluorescent dye conjugated secondary antibody.

[7] = starvation, 4 h and 6 h, 50 μM, versus untreated

## O=C1Nc2cc(Br)ccc2/C1=C1/Nc2ccccc2/C1=N\O [6-Bio, (2′Z,3′E)-6-Bromoindirubin-3′-oxime]
[1]; growth condition, 6 h, 50 μM
  autophagy induction / flux, growth condition: dramatically induces autophagy
[1]; growth condition, 50 μM, versus untreated
  increase in autophagic flux, growth condition: approximately 3 fold
[1]; [7]
  increase in autophagic flux, starvation condition: 2 fold
  increase in autophagy induction, starvation condition: 2 fold
[2]; 5 μM, 24 h, versus untreated
  reduction of EGFP-α-synuclein levels: ~2 fold
[2]; with 3-methyl adenine (5 mM)
  EGFP-α-synuclein levels on co-treatment with 3-MA: does not change

## Cc1ccc(S(=O)(=O)/C=C/C#N)cc1 [Bay11, 3-[(4-methylphenyl)sulfonyl]-(2E)-propenenitrile]
[1]; starvation
  GFP-Atg8 labelled autophagosomes, fluorescence microscopy: accumulation of punctate structures outside the vacuole
  release of GFP from GFP-Atg8 (general autophagy): slower release of GFP
[3]; starvation
  degradation of peroxisomes (Pot1-GFP): delay the degradation of peroxisomes
[3]; starvation, 25 μM Bay11, 50 μM ZPCK
  localisation of peroxisomes (fluorescence microscopy): accumulate outside the vacuoles
[3]; wild type cells, up to 6 hours of starvation
  free GFP release from Pot1-GFP: No free GFP release
[4]
  mean number of Atg8 puncta per cell: 0.22±0.03

## COc1cc(C=C(C#N)C(=O)Nc2nnc(C(F)(F)F)s2)ccc1OCc1ccc(C(F)(F)F)cc1C(F)(F)F [XCT 790, 3-[4-(2,4-Bis-trifluoromethylbenzyloxy)-3-methoxyphenyl]-2-cyano-N-(5-trifluoromethyl-1,3,4-thiadiazol-2-yl)acrylamide]
[5]
  accumulation of LC3-II levels: ~2.5 fold
[6]
  autolysosomes, fold vs control: ~4 fold
  autophagosomes, fold vs control: ~2 fold

Reference: US20180369186A1, “METHOD FOR MODULATING AUTOPHAGY AND APPLICATIONS THEREOF” (JAWAHARLAL NEHRU CENTRE FOR ADVANCED SCIENTIFIC RESEARCH, priority 2015, published 2018)
